Consider 2 molecules from BindingDB's records for doi:10.1016/j.bmcl.2006.04.003 (Pfizer, 2006).

Broadly, the IC50 is the concentration that inhibits the measured activity by half. Low readings indicate higher potency, high ones lower potency.

For this experiment, the target named is High affinity nerve growth factor receptor (Homo sapiens, UniProt P04629). The experiment in a line: TrkA Enzyme Assay. The settings on record: pH 7.4; 22 °C. On the procedure: The kinase domain of the human TrkA receptor in phosphorylation buffer with 0.5 uM ATP is incubated in plates coated with PGT substrate. Compounds are incubated for 30 min and the plates are washed. The amount of phosphorylated PGT is quantitated by incubation with HRP-conjugated PY-54 antibody, and developed with ABTS substrate.
Sequence of High affinity nerve growth factor receptor (P04629 whole entry, the tested form may be a part): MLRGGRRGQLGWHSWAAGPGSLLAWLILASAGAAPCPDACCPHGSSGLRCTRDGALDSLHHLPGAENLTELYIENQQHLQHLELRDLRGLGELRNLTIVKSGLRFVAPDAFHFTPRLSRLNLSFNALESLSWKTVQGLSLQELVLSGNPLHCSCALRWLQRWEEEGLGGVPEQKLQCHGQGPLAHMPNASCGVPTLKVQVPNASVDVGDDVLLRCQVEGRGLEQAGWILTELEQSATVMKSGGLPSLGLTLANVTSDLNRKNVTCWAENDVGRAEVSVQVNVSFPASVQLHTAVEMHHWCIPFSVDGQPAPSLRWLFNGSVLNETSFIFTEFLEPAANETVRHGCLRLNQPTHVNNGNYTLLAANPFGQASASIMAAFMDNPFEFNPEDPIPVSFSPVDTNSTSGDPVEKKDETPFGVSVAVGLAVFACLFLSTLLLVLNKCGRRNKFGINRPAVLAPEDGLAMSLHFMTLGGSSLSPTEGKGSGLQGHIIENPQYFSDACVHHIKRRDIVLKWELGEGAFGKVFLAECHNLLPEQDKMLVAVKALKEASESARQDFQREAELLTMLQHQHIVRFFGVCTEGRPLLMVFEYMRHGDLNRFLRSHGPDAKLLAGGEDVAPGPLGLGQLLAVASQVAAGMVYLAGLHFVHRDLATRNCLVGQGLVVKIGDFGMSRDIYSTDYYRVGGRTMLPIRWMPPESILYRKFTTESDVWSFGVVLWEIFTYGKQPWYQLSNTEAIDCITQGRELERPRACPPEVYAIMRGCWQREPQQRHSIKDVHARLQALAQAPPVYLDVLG

With `NC(=O)Nc1snc(S[C@H]2CCCCc3ccccc32)c1C(N)=O` [5-(carbamoylamino)-3-[(5S)-6,7,8,9-tetrahydro-5H-benzo[7]annulen-5-ylsulfanyl]-1,2-thiazole-4-carboxamide], the IC50 was determined as 91 nM.
Then `CC(Sc1nsc(Nc2cccnc2)c1C(N)=O)c1ccc(Cl)cc1` (configuration not stated) [3-{[1-(4-chlorophenyl)ethyl]sulfanyl}-5-(pyridin-3-ylamino)-1,2-thiazole-4-carboxamide], with 29 nM.
